ChEMBL document CHEMBL1201862, “PubChem BioAssay data set” (2004)
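Briefly, cells in 96-well plates were exposed to five compound concentrations for 48 h, and endpoints were estimated by linear interpolation. GI50 = concentration required for 50% inhibition of growth.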 Active and inactive are the calls of the source. Cut-off read from the data, not from the text of the source: active = GI50 up to about 1.1 µM and inactive = higher.

Tests used:
Test in all cases: NCI-60 cell line screen, 48 h
K562 = tested on: K562
SK-OV-3 = tested on: SK-OV-3
Malme-3M = tested on: Malme-3M
SN12C = tested on: SN12C
LOX IMVI = tested on: LOX IMVI
HT-29 = tested on: HT-29
SF-539 = tested on: SF-539
KM12 = tested on: KM12
NCI-H226 = tested on: NCI-H226
ACHN = tested on: ACHN
COLO 205 = tested on: COLO 205
SK-MEL-5 = tested on: SK-MEL-5
OVCAR-8 = tested on: OVCAR-8
SK-MEL-28 = tested on: SK-MEL-28
NCI-H460 = tested on: NCI-H460
EKVX = tested on: EKVX
SW-620 = tested on: SW-620
SK-MEL-2 = tested on: SK-MEL-2
MCF7 = tested on: MCF7
BT-549 = tested on: BT-549

Measured: GI50

CC1=NN(C(=O)c2ccc(Cl)cc2)C(=O)/C1=C/c1ccc(O)cc1
inactive: K562 > 100 µM | SK-OV-3 > 100 µM | Malme-3M > 100 µM | SN12C > 100 µM | LOX IMVI > 100 µM | HT-29 > 100 µM | SF-539 > 100 µM | KM12 > 100 µM | NCI-H226 > 100 µM | ACHN > 100 µM | COLO 205 > 100 µM | SK-MEL-5 > 100 µM | OVCAR-8 > 100 µM | SK-MEL-28 > 100 µM | NCI-H460 > 100 µM | EKVX > 100 µM | SW-620 > 100 µM | SK-MEL-2 > 100 µM

Cc1ccc(C)c(COCCOCn2c(=O)[nH]c(=O)c3cc(Br)ccc32)c1
inactive: MCF7 > 100 µM | K562 > 100 µM | SK-OV-3 > 100 µM | Malme-3M 71.8 µM | SN12C > 100 µM | LOX IMVI > 100 µM | HT-29 98.2 µM | SF-539 99.3 µM | KM12 > 100 µM | NCI-H226 > 100 µM | ACHN > 100 µM | COLO 205 > 100 µM | OVCAR-8 94.2 µM | SK-MEL-28 39.5 µM | NCI-H460 > 100 µM | EKVX > 100 µM | SW-620 > 100 µM | SK-MEL-2 > 100 µM

CCC(c1ccc(N(C)C)cc1)C1NC(=S)NC1=O (stereo unspecified)
inactive: MCF7 > 100 µM | K562 20.1 µM | SK-OV-3 > 100 µM | Malme-3M > 100 µM | SN12C > 100 µM | LOX IMVI 97.9 µM | HT-29 57.1 µM | SF-539 > 100 µM | KM12 62.7 µM | NCI-H226 87.3 µM | ACHN > 100 µM | COLO 205 98.2 µM | SK-MEL-5 37.8 µM | OVCAR-8 > 100 µM | SK-MEL-28 > 100 µM | NCI-H460 > 100 µM | EKVX 51.5 µM | SW-620 68.9 µM

Cc1ccc(S(=O)(=O)N/C(=C\C=C\c2ccccc2)C(=O)C(C)(C)C)cc1
inactive: MCF7 73.1 µM | K562 > 100 µM | SK-OV-3 38.6 µM | Malme-3M > 100 µM | SN12C > 100 µM | LOX IMVI > 100 µM | HT-29 > 100 µM | SF-539 37.9 µM | KM12 > 100 µM | NCI-H226 > 100 µM | ACHN 58.5 µM | COLO 205 > 100 µM | SK-MEL-5 56 µM | OVCAR-8 51.4 µM | SK-MEL-28 > 100 µM | NCI-H460 > 100 µM | EKVX > 100 µM | SW-620 > 100 µM | SK-MEL-2 > 100 µM

CC(=O)N1CN2C(=O)CCC2c2cc(C)ccc21 (stereo unspecified)
inactive: MCF7 > 100 µM | K562 > 100 µM | SK-OV-3 > 100 µM | Malme-3M > 100 µM | SN12C > 100 µM | LOX IMVI > 100 µM | HT-29 > 100 µM | SF-539 > 100 µM | KM12 > 100 µM | NCI-H226 > 100 µM | ACHN > 100 µM | COLO 205 > 100 µM | SK-MEL-5 > 100 µM | OVCAR-8 > 100 µM | SK-MEL-28 > 100 µM | NCI-H460 > 100 µM | EKVX > 100 µM | SW-620 > 100 µM | SK-MEL-2 > 100 µM

O=C1/C(=C\c2ccc([N+](=O)[O-])cc2)Sc2scc(-c3ccc(O)c(O)c3)[n+]21
inactive: MCF7 3.56 µM | K562 3.4 µM | SK-OV-3 12.7 µM | SN12C 4.5 µM | LOX IMVI 5.61 µM | HT-29 3.31 µM | SF-539 5.02 µM | KM12 10.9 µM | NCI-H226 17.8 µM | ACHN 6.82 µM | COLO 205 2.34 µM | SK-MEL-5 3.87 µM | OVCAR-8 4.45 µM | SK-MEL-28 12.3 µM | NCI-H460 4.06 µM | EKVX 14.2 µM | SW-620 3.4 µM | SK-MEL-2 14.7 µM

O=C1c2cc3c(cc2CC12Cc1ccccc1C2)CCC3
inactive: MCF7 18.8 µM | K562 44.3 µM | SK-OV-3 > 100 µM | Malme-3M 28.1 µM | SN12C 29.1 µM | LOX IMVI 18.6 µM | HT-29 21.5 µM | SF-539 31.4 µM | KM12 24.9 µM | NCI-H226 23.4 µM | ACHN 27.8 µM | COLO 205 18.6 µM | SK-MEL-5 18.3 µM | OVCAR-8 21.2 µM | SK-MEL-28 57.4 µM | NCI-H460 25.8 µM | EKVX 29.9 µM | SW-620 45.8 µM | SK-MEL-2 23.5 µM

CC(C)NC(=O)CCN(C(=O)O)S(=O)(=O)c1ccc(NC(=O)c2ccccc2)cc1
inactive: K562 > 43.7 µM | SK-OV-3 > 100 µM | Malme-3M > 100 µM | SN12C > 100 µM | LOX IMVI 39.9 µM | HT-29 > 58.1 µM | SF-539 24.6 µM | KM12 > 65.6 µM | NCI-H226 > 100 µM | ACHN > 81.3 µM | COLO 205 > 40.6 µM | SK-MEL-5 > 100 µM | OVCAR-8 > 54.5 µM | SK-MEL-28 > 100 µM | NCI-H460 > 43.2 µM | EKVX > 100 µM | SW-620 27.7 µM | SK-MEL-2 > 100 µM

CC(C)[Si](OC1=CCCCCC12C(=O)N(C)c1ccccc12)(C(C)C)C(C)C (stereo unspecified)
inactive: MCF7 16.9 µM | K562 24.1 µM | SK-OV-3 20.5 µM | Malme-3M 20.2 µM | LOX IMVI 19.5 µM | HT-29 20.5 µM | SF-539 22.5 µM | KM12 18.5 µM | NCI-H226 20.2 µM | ACHN 16.8 µM | COLO 205 18.9 µM | SK-MEL-5 17.5 µM | OVCAR-8 21 µM | SK-MEL-28 23.6 µM | NCI-H460 17.6 µM | EKVX 17.7 µM | SW-620 17.3 µM | SK-MEL-2 18.2 µM

Cc1cn(CCCC2=NCCCN2)c(=O)[nH]c1=O
inactive: MCF7 > 100 µM | K562 > 100 µM | SK-OV-3 > 100 µM | Malme-3M > 100 µM | SN12C > 100 µM | LOX IMVI > 100 µM | HT-29 > 100 µM | SF-539 > 100 µM | KM12 > 100 µM | NCI-H226 > 100 µM | ACHN > 100 µM | COLO 205 > 100 µM | SK-MEL-5 > 100 µM | OVCAR-8 > 100 µM | SK-MEL-28 > 100 µM | NCI-H460 > 100 µM | EKVX > 100 µM | SW-620 > 100 µM | SK-MEL-2 > 100 µM

COc1ccc2c(c1)[n+]([O-])c(C(=O)CC(=O)C(=O)Nc1cccc(Cl)c1C)c(C)[n+]2[O-]
inactive: K562 60.7 µM | SK-OV-3 > 100 µM | Malme-3M > 100 µM | SN12C > 100 µM | LOX IMVI > 100 µM | HT-29 83 µM | SF-539 > 100 µM | KM12 > 100 µM | NCI-H226 > 100 µM | ACHN > 100 µM | COLO 205 53.7 µM | SK-MEL-5 > 100 µM | OVCAR-8 > 100 µM | SK-MEL-28 > 100 µM | NCI-H460 > 100 µM | EKVX > 100 µM | SW-620 68.9 µM | SK-MEL-2 > 100 µM

COc1c(-c2nc3ccc(N4CCN(C)CC4)nc3[nH]2)cc(OC)c2c1nc(CO)n2C
inactive: K562 > 100 µM | SK-OV-3 > 100 µM | Malme-3M > 100 µM | SN12C > 100 µM | LOX IMVI > 100 µM | HT-29 > 100 µM | SF-539 53.3 µM | KM12 > 100 µM | BT-549 > 100 µM | NCI-H226 > 100 µM | ACHN > 100 µM | COLO 205 75.7 µM | OVCAR-8 > 100 µM | SK-MEL-28 > 100 µM | NCI-H460 > 100 µM | EKVX > 100 µM | SW-620 > 100 µM | SK-MEL-2 > 100 µM

CC1OC(=O)c2ccccc2NC1=O (stereo unspecified)
inactive: K562 > 100 µM | SK-OV-3 > 100 µM | Malme-3M > 100 µM | SN12C > 100 µM | LOX IMVI > 100 µM | HT-29 > 100 µM | SF-539 > 100 µM | KM12 > 100 µM | BT-549 > 100 µM | NCI-H226 > 100 µM | ACHN > 100 µM | COLO 205 > 100 µM | SK-MEL-5 > 100 µM | OVCAR-8 > 100 µM | SK-MEL-28 > 100 µM | NCI-H460 > 100 µM | EKVX > 100 µM | SW-620 > 100 µM | SK-MEL-2 > 100 µM

C=CC(C)(C)/C(=C\CO[Si](C(C)C)(C(C)C)C(C)C)C(=O)N(C)c1ccccc1I
inactive: MCF7 11.5 µM | SK-OV-3 16.3 µM | SN12C 16.2 µM | LOX IMVI 14.3 µM | HT-29 13.4 µM | SF-539 18 µM | KM12 27.5 µM | ACHN 13.1 µM | COLO 205 16.4 µM | SK-MEL-5 17.7 µM | OVCAR-8 14.8 µM | SK-MEL-28 14.2 µM | NCI-H460 13.6 µM | EKVX 16 µM | SW-620 12.6 µM

CN(C(=O)C1CCCCCC1=O)c1ccccc1Cl (stereo unspecified)
inactive: SK-OV-3 > 100 µM | Malme-3M > 100 µM | SN12C > 100 µM | LOX IMVI > 100 µM | HT-29 > 100 µM | SF-539 > 100 µM | KM12 > 100 µM | BT-549 > 100 µM | NCI-H226 > 100 µM | ACHN > 100 µM | COLO 205 > 100 µM | SK-MEL-5 > 100 µM | OVCAR-8 > 100 µM | SK-MEL-28 > 100 µM | NCI-H460 > 100 µM | EKVX > 100 µM | SW-620 > 100 µM
